# Experimental data from paper PMC10573062, “Synthesis, Structural Characterization, Cytotoxicity, and Protein/DNA Binding Properties of Pyridoxylidene-Aminoguanidine-Metal (Fe, Co, Zn, Cu) Complexes” (International Journal of Molecular Sciences, 2023).
# Key:
# HCT116 cell lines = system: HCT116 cell lines; set-up: method as in PMID 30798514; conditions: previous study; cited from earlier work
# [1] = Qualitative solubility in solvents; format: physicochemical
# [2] = molecular target: T1, bovine serum albumin (BSA) (Bos taurus, UniProt P02769); test: Spectrofluorometric titration of BSA (fluorescence quenching, double log Stern–Volmer, van't Hoff); format: binding; conditions: for ΔHb / ΔSb: van't Hoff over three temperatures
# T1 construct: purchased
# T1 sequence (P02769 25-607): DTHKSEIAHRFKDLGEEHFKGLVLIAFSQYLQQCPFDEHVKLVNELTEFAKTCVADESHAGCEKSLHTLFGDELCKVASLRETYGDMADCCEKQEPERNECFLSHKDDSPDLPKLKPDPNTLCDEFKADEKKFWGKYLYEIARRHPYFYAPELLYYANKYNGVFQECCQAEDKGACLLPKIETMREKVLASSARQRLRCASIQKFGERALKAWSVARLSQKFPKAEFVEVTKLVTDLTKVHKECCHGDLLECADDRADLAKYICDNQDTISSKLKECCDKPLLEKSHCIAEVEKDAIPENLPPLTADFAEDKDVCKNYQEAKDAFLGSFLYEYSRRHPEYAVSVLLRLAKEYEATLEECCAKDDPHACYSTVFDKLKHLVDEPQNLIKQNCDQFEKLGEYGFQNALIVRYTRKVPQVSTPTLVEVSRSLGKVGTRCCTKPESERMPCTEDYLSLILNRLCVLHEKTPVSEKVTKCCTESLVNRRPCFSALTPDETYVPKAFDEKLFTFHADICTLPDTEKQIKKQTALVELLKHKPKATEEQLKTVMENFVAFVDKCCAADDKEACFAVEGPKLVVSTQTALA
# Procedure: (§1) The protein binding affinity of obtained compounds was analyzed by the spectrofluorometric titration of BSA and HSA solution by the solution containing obtained compounds. The mixture was irradiated by light with a wavelength of 295 (BSA) and 280 nm (HSA). Both proteins contain fluorescent amino acids within active pockets, and the binding process can be monitored through the change in intensity and position of the emitted light maxima. The fluorescent emission depends on the chemical environment of amino acids. The measurements for each complex were repeated at three temperatures to allow the determination of the thermodynamic parameters of binding.
# (§2) The spectrofluorometric measurements were used to investigate the binding process of obtained compounds towards bovine serum albumin (BSA) and human serum albumin (HSA) on the Cary Eclipse MY2048CH03 instrument. The scan rate was 600 nm min^−1, and both slits were 5 nm. The excitation wavelengths were 295 nm and 280 nm for BSA and HSA, respectively. These energies are characteristics of the protein structure’s tryptophan and other fluorescent amino acid residues. The emission spectra were recorded between 310 and 500 nm. The concentration of proteins was held constant at 5 × 10^−6 M in […] phosphate buffer saline (pH = 7.4). The concentration of complexes changed from 1 to 10 × 10^−6 M, and the emission spectrum was recorded two minutes after the addition of compounds. The data were analyzed by the double log Stern–Volmer quenching equation (Equation (2)):(2) logI0−I/I=logKb+nlogQ
# In the previous equation, I0 and I are the fluorescent emission intensities of BSA/HSA without and with added metal complexes, respectively; Kb is the binding constant; n is the number of binding places; and [Q] is the concentration of quenchers (metal complexes). […]
# [3] = molecular target: T2, human serum albumin (HSA) (Homo sapiens, UniProt P02768); test: Spectrofluorometric titration of HSA (fluorescence quenching, double log Stern–Volmer, van't Hoff); format: binding; conditions: for ΔHb / ΔSb: van't Hoff over three temperatures
# T2 construct: purchased
# T2 sequence (P02768 25-609): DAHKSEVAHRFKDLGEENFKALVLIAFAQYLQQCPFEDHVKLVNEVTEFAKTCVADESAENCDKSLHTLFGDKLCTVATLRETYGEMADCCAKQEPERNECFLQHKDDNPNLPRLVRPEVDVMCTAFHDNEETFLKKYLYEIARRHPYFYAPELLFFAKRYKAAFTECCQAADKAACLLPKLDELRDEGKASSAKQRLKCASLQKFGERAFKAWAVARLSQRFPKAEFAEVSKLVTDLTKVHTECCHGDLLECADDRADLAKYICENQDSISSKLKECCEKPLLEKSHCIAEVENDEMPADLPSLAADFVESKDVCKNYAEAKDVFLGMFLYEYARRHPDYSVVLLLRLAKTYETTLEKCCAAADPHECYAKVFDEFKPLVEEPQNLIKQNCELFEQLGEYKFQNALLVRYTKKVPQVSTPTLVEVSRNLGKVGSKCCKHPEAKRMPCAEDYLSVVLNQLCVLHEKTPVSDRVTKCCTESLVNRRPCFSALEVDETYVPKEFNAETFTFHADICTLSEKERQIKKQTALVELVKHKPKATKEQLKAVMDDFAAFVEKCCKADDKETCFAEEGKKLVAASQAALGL
# Procedure: as §1
# The binding affinity of obtained complexes was also examined towards HSA as a transport protein relevant to the human body. The temperature range was changed to reflect better temperatures common for humans (32–42 °C). The representative example of the HAS fluorescence measurements is shown in Figure 9, along with van’t Hoff’s plot. The decrease in the fluorescence intensity emission was also dependent on the concentration of complexes. On average, the binding constants were similar to the ones calculated for BSA. […] High correlation coefficients, between 0.990 and 0.998, were calculated for the dependency described by Equation (2). The number of binding places is 1, proving that the same type of complexes were formed between investigated compounds and HAS as previously shown for BSA.
# as §2
# In the previous equation, I0 and I are the fluorescent emission intensities of BSA/HSA without and with added metal complexes, respectively; Kb is the binding constant; n is the number of binding places; and [Q] is the concentration of quenchers (metal complexes).
# The changes in enthalpy and entropy of the binding process were determined from the vant’t Hoff equation (Equation (3)) following the measurements at three temperatures (27, 32, and 37 °C):(3) lnKb=−∆Hb/RT+∆Sb/R
# [4] = system: HCT116 colorectal carcinoma; test: MTT viability assay, HCT116; format: cell-based, human; conditions: 72 h of treatment
# Procedure: (§3) The following cell lines were used in this study: human cell lines (A375 melanoma, MCF-7 breast cancer, HCT116 colorectal carcinoma, and A2780 ovarian cancer. These cell lines were purchased from the American Type Culture Collection (Rockville, MD, USA). The A2780 cells were cultivated in DMEM, while all other cell lines were cultivated in the HEPES-buffered RPMI-1640 medium. The cell culture mediums were supplemented with penicillin (1000 units/mL), streptomycin (100 µg/mL), and 10% inactivated FBS. All cells were cultivated at 37 °C in a humidified atmosphere with 5% CO2.
# (§4) Two colorimetric viability assays were applied, namely 3-(4,5-dimethylthiazol-2-yl)-2,5-diphenyl-2H-tetrazolium bromide (MTT) and crystal-violet (CV) (Sigma Aldrich, St. Louis, MO, USA), according to the previous studies. The cells were seeded overnight in 96-well plates: A2780 and MRC-5 8 × 10^3 cells/well, HCT 116 6 × 10^3 cells/well, A375 5 × 10^3 cells/well, and MCF-7 at 10 × 10^3 cells/well [67]. The standard solutions of complexes were prepared in DMSO. All cells were treated with the following concentrations of investigated compounds: 100, 50, 25, 12.5, 6.25, 3.125, and 1.56 µM. After 72 h of treatment, viability assays were conducted. For the CV assay, cells were fixed using 4% paraformaldehyde (PFA) for 20 min at room temperature after being washed once with PBS. Afterward, they were stained with 0.2% CV solution for 25 min. This procedure was followed by washing with double distilled water. The cells were left to dry overnight at room temperature. In the last step, 33% acetic acid was used to dissolve the remaining dye. The other test included incubating cells in MTT solution (0.5 mg L^−1 in cell culture medium) for […] at 37 °C in a humid environment with 5% CO2. After one hour, the MTT solution was discarded, and the formed formazan was dissolved using DMSO. A plate reader (Spectromax, Molecular Devices, San Jose, CA, USA) was utilized for the absorption measurements at 570 and 670 (background) nm. The cell viability was calculated as the percentage compared to untreated cells, and the mean was obtained using a four-parametric logistic function. Each of the three independent experiments was performed in quadruplicate.
# [5] = system: HCT116 colorectal carcinoma; test: CV (crystal-violet) viability assay, HCT116; format: cell-based, human; conditions: 72 h of treatment
# Procedure: as §3, §4
# MCF-7 breast cancer [6] = test: MTT viability assay, MCF-7; format: cell-based, human; conditions: MCF-7, MTT, 72 h of treatment
# Procedure: as §3, §4
# MCF-7 breast cancer [7] = test: CV (crystal-violet) viability assay, MCF-7; format: cell-based, human; conditions: MCF-7, CV, 72 h of treatment
# Procedure: as §3, §4
# A2780 ovarian cancer [8] = test: MTT viability assay, A2780; format: cell-based, human; conditions: 72 h of treatment
# Procedure: as §3, §4
# A2780 ovarian cancer [9] = test: CV (crystal-violet) viability assay, A2780; format: cell-based, human; conditions: 72 h of treatment
# Procedure: as §3, §4
# A375 melanoma [10] = test: MTT viability assay, A375; format: cell-based, human; conditions: 72 h of treatment
# Procedure: as §3
# as §4, with “After one hour, the MTT solution was discarded, and the formed formazan was dissolved using DMSO.” left out, “Each of the three independent experiments was performed in quadruplicate.” left out
# A375 melanoma [11] = test: CV (crystal-violet) viability assay, A375; format: cell-based, human; conditions: 72 h of treatment
# Procedure: as §3
# as §4, with “After one hour, the MTT solution was discarded, and the formed formazan was dissolved using DMSO.” left out, “Each of the three independent experiments was performed in quadruplicate.” left out
# [12] = in chloroform, dimethylsulfoxide, dimethylformamide, acetone, and acetonitrile
# [13] = in methanol, ethanol, phosphate buffer saline, and water
Compound,solubility ([1]; in diethyl ether and toluene),Kb (binding constant) ([2]; 27 °C),n (number of binding places) ([2]; 27 °C),ΔGb ([2]; 27 °C),Kb (binding constant) ([2]; 32 °C),n (number of binding places) ([2]; 32 °C),ΔGb ([2]; 32 °C),Kb (binding constant) ([2]; 35 °C),n (number of binding places) ([2]; 35 °C),ΔGb ([2]; 35 °C),ΔHb [2],ΔSb [2],n (number of binding places) ([3]; 32 °C),ΔGb ([3]; 32 °C),n (number of binding places) ([3]; 37 °C),ΔGb ([3]; 37 °C),n (number of binding places) ([3]; 42 °C),ΔGb ([3]; 42 °C),IC50 [4],IC50 [5],further results
O=S(=O)([O-])[O-].[Cu+2] [CuSO4],,,,,,,,,,,,,,,,,,,,,activity towards HCT116 cell line (HCT116 cell lines): almost completely inactive
Cu(PLAG)(NCS)2 [Cu-PLAG],insoluble,9630 M⁻¹,1.13,-5.382 kcal/mol,89700 M⁻¹,1.10,-7.087 kcal/mol,1.82e+06 M⁻¹,0.98,-8.788 kcal/mol,96.793 kcal/mol,1425.02 J mol^−1 K^−1,0.91,-5.37 kcal/mol,0.90,-5.961 kcal/mol,0.98,-6.554 kcal/mol,81.5 ± 0.1 µM,97.4 ± 3.7 µM,"ΔHb [3]: 30.727 kcal/mol; ΔSb [3]: 495.17 J mol^−1 K^−1; IC50 (MCF-7 breast cancer [6]): 48.3 ± 1.5 µM; IC50 (MCF-7 breast cancer [7]): 65.4 ± 4.8 µM; IC50 (A2780 ovarian cancer [8]): 32.5 ± 2.6 µM; IC50 (A2780 ovarian cancer [9]): 38.5 ± 2.1 µM; solubility [1, 12]: soluble; solubility [1, 13]: moderately soluble"
[Co(PLAG)2]SO4^.2H2O [Co-PLAG],insoluble,18600 M⁻¹,0.97,-5.858 kcal/mol,20400 M⁻¹,0.98,-6.021 kcal/mol,22900 M⁻¹,0.96,-6.181 kcal/mol,3.826 kcal/mol,135.08 J mol^−1 K^−1,1.05,-5.578 kcal/mol,1.08,-6.761 kcal/mol,1.16,-7.945 kcal/mol,> 100 µM,> 100 µM,"ΔHb [3]: 66.597 kcal/mol; ΔSb [3]: 990.11 J mol^−1 K^−1; IC50 (A375 melanoma [10]): > 100 µM; IC50 (A375 melanoma [11]): > 100 µM; IC50 (MCF-7 breast cancer [6]): > 100 µM; IC50 (MCF-7 breast cancer [7]): > 100 µM; IC50 (A2780 ovarian cancer [8]): > 100 µM; IC50 (A2780 ovarian cancer [9]): > 100 µM; solubility [1, 12]: soluble; solubility [1, 13]: moderately soluble"

# Now from value to compound, other results behind:
solubility ([1]; in diethyl ether and toluene),Kb (binding constant) ([2]; 27 °C),n (number of binding places) ([2]; 27 °C),ΔGb ([2]; 27 °C),Kb (binding constant) ([2]; 32 °C),n (number of binding places) ([2]; 32 °C),ΔGb ([2]; 32 °C),Kb (binding constant) ([2]; 35 °C),n (number of binding places) ([2]; 35 °C),ΔGb ([2]; 35 °C),ΔHb [2],ΔSb [2],n (number of binding places) ([3]; 32 °C),ΔGb ([3]; 32 °C),n (number of binding places) ([3]; 37 °C),ΔGb ([3]; 37 °C),n (number of binding places) ([3]; 42 °C),ΔGb ([3]; 42 °C),IC50 [4],IC50 [5],Compound,further results
insoluble,,,,,,,,,,,,,,,,,,,,"Cc1ncc(CO)c(/C=N/N=C(N)N)c1O [PLAG, Pyridoxylidene-aminoguanidine]","solubility ([1]; in MeOH and DMF): soluble; solubility ([1]; in methanol, ethanol, and water): moderately soluble"
insoluble,31800 M⁻¹,1.12,-6.171 kcal/mol,83200 M⁻¹,1.10,-6.888 kcal/mol,234000 M⁻¹,1.04,-7.605 kcal/mol,36.898 kcal/mol,600.66 J mol^−1 K^−1,1.09,-5.081 kcal/mol,0.90,-6.647 kcal/mol,1.12,-8.212 kcal/mol,> 100 µM,> 100 µM,[Fe(PLAG)2]SO4^.2H2O [Fe-PLAG],"ΔHb [3]: 90.411 kcal/mol; ΔSb [3]: 1309.95 J mol^−1 K^−1; IC50 (A375 melanoma [10]): > 100 µM; IC50 (A375 melanoma [11]): > 100 µM; IC50 (MCF-7 breast cancer [6]): > 100 µM; IC50 (MCF-7 breast cancer [7]): > 100 µM; IC50 (A2780 ovarian cancer [8]): > 100 µM; IC50 (A2780 ovarian cancer [9]): > 100 µM; solubility [1, 12]: soluble; solubility [1, 13]: moderately soluble"
insoluble,58000 M⁻¹,1.13,-6.561 kcal/mol,124000 M⁻¹,1.09,-7.065 kcal/mol,208000 M⁻¹,1.03,-7.567 kcal/mol,23.61 kcal/mol,420.77 J mol^−1 K^−1,1.11,-6.848 kcal/mol,0.99,-6.898 kcal/mol,0.95,-6.948 kcal/mol,> 100 µM,> 100 µM,[Zn(PLAG)(SO4)(H2O)]^.H2O [Zn-PLAG],"IC50 (A375 melanoma [10]): > 100 µM; IC50 (A375 melanoma [11]): > 100 µM; IC50 (MCF-7 breast cancer [6]): > 100 µM; IC50 (MCF-7 breast cancer [7]): > 100 µM; IC50 (A2780 ovarian cancer [8]): > 100 µM; IC50 (A2780 ovarian cancer [9]): > 100 µM; solubility [1, 12]: soluble; solubility [1, 13]: moderately soluble"
